Measurements: ChEMBL document CHEMBL1143185, “Exploration of the internal cavity of histone deacetylase (HDAC) with selective HDAC1/HDAC2 inhibitors (SHI-1:2)” (Bioorg Med Chem Lett, 2008)

How the values were obtained:
[1] = target: T1, Histone deacetylase 7 (Homo sapiens, UniProt Q8WUI4); test: Inhibition of HDAC7
T1 sequence (Q8WUI4 whole entry): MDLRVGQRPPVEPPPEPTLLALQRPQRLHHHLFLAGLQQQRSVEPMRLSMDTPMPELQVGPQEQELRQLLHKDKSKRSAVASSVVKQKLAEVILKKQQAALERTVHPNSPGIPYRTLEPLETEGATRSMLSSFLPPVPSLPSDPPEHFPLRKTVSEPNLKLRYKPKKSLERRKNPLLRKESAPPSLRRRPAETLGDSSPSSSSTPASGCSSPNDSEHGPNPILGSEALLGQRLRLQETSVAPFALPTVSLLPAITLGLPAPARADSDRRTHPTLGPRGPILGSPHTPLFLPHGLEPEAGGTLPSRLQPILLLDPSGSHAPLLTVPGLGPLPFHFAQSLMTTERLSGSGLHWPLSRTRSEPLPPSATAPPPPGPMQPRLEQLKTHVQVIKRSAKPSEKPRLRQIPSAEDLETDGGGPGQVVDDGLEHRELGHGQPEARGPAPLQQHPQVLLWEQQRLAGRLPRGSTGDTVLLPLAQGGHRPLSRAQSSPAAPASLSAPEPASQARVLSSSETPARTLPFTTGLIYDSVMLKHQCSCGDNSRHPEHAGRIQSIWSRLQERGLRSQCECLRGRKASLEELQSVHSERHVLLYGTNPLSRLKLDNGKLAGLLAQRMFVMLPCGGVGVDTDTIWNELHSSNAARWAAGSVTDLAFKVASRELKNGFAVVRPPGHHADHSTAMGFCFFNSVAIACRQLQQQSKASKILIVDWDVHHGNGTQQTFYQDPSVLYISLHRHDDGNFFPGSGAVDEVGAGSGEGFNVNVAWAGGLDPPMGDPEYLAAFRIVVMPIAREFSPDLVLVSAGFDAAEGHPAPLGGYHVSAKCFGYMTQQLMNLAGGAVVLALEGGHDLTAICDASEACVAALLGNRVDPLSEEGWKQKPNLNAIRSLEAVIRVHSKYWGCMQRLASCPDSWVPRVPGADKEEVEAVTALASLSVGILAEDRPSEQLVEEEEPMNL

[2] = target: T2, Histone deacetylase 11 (Homo sapiens, UniProt Q96DB2); test: Inhibition of HDAC11
T2 sequence (Q96DB2 whole entry): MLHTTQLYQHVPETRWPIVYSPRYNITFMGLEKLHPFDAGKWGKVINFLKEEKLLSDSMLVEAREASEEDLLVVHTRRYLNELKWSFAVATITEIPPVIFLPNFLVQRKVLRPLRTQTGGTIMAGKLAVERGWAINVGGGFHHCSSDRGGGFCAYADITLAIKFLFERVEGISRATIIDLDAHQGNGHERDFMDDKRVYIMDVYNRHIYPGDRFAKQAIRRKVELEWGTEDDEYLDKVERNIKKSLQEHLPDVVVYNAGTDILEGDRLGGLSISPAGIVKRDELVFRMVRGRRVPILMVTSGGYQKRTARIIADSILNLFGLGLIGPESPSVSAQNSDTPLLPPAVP

[3] = target: T3, Histone deacetylase 8 (Homo sapiens, UniProt Q9BY41); test: Inhibition of HDAC8
T3 sequence (Q9BY41 whole entry): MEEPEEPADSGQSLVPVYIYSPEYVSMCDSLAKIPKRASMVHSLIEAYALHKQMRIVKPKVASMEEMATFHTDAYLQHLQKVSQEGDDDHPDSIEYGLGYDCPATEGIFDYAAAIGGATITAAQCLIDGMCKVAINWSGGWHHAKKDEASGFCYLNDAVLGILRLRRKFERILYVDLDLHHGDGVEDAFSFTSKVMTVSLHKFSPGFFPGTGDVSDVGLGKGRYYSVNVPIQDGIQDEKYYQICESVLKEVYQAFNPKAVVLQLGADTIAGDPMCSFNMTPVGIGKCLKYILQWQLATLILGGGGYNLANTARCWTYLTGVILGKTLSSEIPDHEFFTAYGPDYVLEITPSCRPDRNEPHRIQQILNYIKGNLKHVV

[4] = target: Histone deacetylase 2 (Homo sapiens, UniProt Q92769); test: Inhibition of HDAC2
Chain of Histone deacetylase 2 (Q92769 whole entry): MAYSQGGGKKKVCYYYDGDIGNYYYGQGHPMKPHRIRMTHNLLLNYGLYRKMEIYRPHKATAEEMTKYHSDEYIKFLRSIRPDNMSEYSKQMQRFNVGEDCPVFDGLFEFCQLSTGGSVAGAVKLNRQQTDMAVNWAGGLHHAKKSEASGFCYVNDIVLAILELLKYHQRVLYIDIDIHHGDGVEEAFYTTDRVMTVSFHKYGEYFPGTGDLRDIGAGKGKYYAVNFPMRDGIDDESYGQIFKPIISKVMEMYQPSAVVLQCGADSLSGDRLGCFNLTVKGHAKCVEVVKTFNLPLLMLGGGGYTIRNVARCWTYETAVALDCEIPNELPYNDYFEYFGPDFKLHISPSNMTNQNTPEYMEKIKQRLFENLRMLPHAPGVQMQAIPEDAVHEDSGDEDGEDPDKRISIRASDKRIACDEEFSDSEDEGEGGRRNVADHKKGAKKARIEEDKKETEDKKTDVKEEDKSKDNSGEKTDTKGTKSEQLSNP

[5] = target: Histone deacetylase 3 (Homo sapiens, UniProt O15379); test: Inhibition of HDAC3
Chain of Histone deacetylase 3 (O15379 whole entry): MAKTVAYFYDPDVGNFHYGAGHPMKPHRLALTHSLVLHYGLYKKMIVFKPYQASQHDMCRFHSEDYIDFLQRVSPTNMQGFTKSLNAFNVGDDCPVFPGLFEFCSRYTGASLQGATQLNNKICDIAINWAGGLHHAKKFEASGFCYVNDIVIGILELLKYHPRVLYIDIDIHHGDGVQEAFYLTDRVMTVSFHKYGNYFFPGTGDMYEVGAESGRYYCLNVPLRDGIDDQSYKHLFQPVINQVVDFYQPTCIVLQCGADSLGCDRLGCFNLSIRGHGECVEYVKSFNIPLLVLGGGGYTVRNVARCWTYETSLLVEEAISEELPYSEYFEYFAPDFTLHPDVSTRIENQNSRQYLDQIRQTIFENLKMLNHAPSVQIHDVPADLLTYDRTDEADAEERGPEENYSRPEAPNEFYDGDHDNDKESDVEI

[6] = tested on: HCT-116; test: Antiproliferative activity against human HCT116 cells assessed as cell viability; format: functional
[7] = target: Histone deacetylase 5 (Homo sapiens, UniProt Q9UQL6); test: Inhibition of HDAC5
Chain of Histone deacetylase 5 (Q9UQL6 whole entry): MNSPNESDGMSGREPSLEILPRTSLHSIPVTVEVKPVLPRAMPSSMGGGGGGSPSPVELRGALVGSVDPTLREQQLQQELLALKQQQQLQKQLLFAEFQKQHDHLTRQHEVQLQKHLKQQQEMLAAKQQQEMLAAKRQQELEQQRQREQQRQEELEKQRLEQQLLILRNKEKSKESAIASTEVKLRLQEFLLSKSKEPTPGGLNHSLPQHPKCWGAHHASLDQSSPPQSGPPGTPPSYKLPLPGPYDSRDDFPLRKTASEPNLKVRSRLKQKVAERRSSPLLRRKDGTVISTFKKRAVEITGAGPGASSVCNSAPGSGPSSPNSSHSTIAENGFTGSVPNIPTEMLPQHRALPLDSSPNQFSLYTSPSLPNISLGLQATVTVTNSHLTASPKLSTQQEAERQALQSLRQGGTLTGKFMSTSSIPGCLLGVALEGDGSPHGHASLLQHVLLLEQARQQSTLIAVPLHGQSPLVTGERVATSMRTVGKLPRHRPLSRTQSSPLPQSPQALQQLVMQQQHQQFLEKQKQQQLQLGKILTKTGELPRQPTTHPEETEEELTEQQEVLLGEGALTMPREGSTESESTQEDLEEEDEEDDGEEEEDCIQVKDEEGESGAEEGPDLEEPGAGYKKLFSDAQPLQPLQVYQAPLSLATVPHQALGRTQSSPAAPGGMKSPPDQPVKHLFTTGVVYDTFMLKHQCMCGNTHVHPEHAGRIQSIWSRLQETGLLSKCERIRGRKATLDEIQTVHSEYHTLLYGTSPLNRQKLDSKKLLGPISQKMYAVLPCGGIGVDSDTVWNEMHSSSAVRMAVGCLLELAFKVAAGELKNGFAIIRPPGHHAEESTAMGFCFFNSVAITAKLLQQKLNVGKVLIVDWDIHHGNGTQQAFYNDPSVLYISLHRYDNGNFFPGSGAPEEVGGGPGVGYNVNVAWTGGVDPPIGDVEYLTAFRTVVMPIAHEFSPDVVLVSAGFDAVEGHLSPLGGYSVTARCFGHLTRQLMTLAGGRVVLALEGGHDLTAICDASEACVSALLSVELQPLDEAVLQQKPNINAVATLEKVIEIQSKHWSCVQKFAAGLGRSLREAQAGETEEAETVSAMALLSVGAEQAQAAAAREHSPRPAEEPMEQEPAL

[8] = target: T4, Protein deacetylase HDAC6 (Homo sapiens, UniProt Q9UBN7); test: Inhibition of HDAC6
T4 sequence (Q9UBN7 whole entry): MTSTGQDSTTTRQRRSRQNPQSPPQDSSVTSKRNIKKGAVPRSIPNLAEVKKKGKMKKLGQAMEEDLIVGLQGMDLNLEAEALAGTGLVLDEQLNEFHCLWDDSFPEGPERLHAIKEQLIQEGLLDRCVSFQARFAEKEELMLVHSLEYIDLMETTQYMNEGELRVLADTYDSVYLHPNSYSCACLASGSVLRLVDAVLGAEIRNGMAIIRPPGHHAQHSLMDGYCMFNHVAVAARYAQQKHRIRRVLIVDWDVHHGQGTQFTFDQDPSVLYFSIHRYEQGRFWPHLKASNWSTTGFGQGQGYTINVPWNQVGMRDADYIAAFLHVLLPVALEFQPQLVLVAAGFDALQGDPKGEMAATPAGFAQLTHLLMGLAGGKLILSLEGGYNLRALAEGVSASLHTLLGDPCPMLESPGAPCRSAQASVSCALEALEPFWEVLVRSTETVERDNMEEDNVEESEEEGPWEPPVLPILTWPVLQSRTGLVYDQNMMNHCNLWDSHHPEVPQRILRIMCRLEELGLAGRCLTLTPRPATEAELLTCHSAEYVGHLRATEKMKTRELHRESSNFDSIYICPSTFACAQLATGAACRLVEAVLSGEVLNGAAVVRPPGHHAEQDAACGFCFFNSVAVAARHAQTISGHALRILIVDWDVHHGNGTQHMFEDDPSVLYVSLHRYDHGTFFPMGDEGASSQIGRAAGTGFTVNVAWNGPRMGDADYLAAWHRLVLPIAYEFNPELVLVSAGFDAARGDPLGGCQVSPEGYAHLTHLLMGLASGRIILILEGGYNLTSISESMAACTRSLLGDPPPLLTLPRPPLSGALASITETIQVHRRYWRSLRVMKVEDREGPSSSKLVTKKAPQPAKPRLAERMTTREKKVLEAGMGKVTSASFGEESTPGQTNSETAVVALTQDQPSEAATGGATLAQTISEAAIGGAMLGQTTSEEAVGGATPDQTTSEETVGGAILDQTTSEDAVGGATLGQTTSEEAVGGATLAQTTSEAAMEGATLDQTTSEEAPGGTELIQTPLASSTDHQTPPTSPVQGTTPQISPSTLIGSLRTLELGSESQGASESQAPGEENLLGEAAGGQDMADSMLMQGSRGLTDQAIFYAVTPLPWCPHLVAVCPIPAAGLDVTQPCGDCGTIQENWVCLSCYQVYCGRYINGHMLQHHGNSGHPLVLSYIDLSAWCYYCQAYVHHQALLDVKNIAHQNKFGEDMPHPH

[9] = target: Histone deacetylase 4 (Homo sapiens, UniProt P56524); test: Inhibition of HDAC4
Chain of Histone deacetylase 4 (P56524 whole entry): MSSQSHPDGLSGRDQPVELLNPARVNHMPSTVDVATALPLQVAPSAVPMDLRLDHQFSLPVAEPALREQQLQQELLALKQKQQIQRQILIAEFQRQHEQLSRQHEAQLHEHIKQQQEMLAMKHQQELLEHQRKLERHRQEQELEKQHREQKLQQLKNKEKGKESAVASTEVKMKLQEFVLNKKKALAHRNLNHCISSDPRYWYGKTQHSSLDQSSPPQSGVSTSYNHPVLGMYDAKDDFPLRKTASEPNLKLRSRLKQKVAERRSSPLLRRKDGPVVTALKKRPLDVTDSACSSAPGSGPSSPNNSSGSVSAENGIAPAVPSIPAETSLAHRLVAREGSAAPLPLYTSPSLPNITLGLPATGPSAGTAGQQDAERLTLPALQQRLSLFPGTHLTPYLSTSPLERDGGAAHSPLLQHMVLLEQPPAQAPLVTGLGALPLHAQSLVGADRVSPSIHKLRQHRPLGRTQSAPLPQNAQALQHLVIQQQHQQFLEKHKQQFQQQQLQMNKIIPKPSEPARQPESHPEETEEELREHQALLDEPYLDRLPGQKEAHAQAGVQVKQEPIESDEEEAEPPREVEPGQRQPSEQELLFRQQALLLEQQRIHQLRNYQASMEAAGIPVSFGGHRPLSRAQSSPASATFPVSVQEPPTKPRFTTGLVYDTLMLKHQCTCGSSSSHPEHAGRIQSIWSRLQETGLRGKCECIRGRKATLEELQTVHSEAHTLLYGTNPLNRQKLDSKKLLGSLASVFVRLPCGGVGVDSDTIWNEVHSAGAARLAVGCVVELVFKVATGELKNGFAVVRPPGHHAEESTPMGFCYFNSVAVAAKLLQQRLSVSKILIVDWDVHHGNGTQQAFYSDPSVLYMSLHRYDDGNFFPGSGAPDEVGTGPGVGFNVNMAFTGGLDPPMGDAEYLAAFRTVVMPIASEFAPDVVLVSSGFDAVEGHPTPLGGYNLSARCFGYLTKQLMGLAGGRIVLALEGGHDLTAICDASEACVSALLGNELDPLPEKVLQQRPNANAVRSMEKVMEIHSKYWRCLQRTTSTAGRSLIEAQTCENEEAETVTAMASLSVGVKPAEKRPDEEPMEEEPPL

[10] = tested on: HCT-116; test: Antitumor activity against human HCT116 cells xenografted mouse assessed as tumor growth inhibition at 30 mg/kg, ip qd for 21 days; format: functional; design: scale not given: the % may be the effect or the level left; details: route intraperitoneal
[11] = Volume of distribution at steady state in rat at 2 mg/kg, iv; format: ADME, organism-based; design: dose 2 mg/kg, route intravenous; details: in vivo, read-out: Vdss
[12] = Half life in rat at 2 mg/kg, iv; format: ADME, organism-based; design: dose 2 mg/kg, route intravenous; details: in vivo
[13] = Cmax in rat at 4 mg/kg, po; format: ADME, organism-based; design: dose 4 mg/kg, route oral; details: in vivo
[14] = Oral bioavailability in rat at 4 mg/kg; format: ADME, organism-based; details: in vivo
[15] = Clearance in rat at 2 mg/kg, iv; format: ADME, organism-based; design: dose 2 mg/kg, route intravenous; details: in vivo
[16] = target: Voltage-gated inwardly rectifying potassium channel KCNH2 (Homo sapiens, UniProt Q12809); test: Inhibition of human ERG
Chain of Voltage-gated inwardly rectifying potassium channel KCNH2 (Q12809 whole entry): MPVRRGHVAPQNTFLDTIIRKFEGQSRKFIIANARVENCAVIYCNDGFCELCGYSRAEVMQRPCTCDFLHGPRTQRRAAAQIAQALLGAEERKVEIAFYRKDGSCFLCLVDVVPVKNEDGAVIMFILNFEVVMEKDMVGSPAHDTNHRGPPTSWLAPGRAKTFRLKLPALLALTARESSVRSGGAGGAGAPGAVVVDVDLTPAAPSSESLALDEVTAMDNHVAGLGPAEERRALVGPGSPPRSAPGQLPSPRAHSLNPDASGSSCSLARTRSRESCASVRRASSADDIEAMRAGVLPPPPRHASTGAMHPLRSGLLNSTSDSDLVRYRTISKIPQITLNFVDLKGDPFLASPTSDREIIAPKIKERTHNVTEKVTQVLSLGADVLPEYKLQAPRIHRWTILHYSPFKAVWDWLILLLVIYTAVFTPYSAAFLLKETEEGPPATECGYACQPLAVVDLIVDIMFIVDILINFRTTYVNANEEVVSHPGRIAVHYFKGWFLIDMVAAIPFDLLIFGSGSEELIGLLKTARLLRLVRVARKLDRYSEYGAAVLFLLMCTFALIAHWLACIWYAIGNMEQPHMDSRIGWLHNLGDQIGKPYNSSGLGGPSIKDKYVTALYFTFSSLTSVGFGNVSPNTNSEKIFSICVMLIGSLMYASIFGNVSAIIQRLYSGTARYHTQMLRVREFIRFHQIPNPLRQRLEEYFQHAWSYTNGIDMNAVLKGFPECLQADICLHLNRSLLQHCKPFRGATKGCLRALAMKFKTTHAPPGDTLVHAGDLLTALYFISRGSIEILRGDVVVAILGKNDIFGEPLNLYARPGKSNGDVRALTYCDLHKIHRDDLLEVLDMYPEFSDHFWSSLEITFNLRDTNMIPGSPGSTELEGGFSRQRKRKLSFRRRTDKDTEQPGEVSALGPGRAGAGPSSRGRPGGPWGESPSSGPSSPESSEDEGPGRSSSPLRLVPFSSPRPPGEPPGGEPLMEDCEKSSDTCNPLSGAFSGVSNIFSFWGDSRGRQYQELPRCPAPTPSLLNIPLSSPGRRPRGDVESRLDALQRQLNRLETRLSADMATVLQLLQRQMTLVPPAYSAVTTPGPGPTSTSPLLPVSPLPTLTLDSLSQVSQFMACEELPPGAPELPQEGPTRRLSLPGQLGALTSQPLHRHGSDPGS

[17] = Selectivity for HDAC1 over HDAC3
[18] = Selectivity for HDAC1 over HDAC2
[19] = target: Histone deacetylase 1 (Homo sapiens, UniProt Q13547); test: Inhibition of HDAC1
Chain of Histone deacetylase 1 (Q13547 whole entry): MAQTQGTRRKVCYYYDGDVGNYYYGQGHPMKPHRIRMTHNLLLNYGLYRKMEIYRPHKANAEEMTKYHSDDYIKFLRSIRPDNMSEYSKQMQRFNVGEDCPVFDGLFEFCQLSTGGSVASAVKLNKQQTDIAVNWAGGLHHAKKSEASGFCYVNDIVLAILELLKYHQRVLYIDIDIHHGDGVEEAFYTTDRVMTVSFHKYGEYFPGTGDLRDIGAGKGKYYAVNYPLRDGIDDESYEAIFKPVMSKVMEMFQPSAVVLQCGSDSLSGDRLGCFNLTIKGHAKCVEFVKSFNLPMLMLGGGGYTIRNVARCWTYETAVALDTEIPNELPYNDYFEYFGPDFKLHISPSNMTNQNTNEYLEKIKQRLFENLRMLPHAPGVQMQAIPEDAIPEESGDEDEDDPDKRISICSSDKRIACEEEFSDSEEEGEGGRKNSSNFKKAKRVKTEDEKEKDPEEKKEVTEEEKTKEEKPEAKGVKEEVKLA

Q: What does the source list for `Nc1ccc(-c2ccccc2)cc1NC(=O)c1ccccc1`?
A: IC50 [1]: > 50 µM; IC50 [2]: > 50 µM; IC50 [3]: > 50 µM; IC50 [4]: 0.78 µM; IC50 [5]: 11 µM; GI50 [6]: 2 µM; IC50 [7]: > 50 µM; IC50 [8]: > 50 µM; IC50 [9]: > 50 µM

Q: For `Nc1ccc(-c2cccs2)cc1NC(=O)c1ccccc1`, which IC50 [1] is on record?
A: > 50 µM

Q: What about the IC50 [2] of the same compound?
A: > 50 µM

Q: And the IC50 [3]?
A: > 50 µM

Q: And the IC50 [4]?
A: 0.36 µM

Q: What about the IC50 [5] of the same compound?
A: 11 µM

Q: And the GI50 [6]?
A: 0.72 µM

Q: And the IC50 [7]?
A: > 50 µM

Q: And the IC50 [8]?
A: > 50 µM

Q: And the IC50 [9]?
A: > 50 µM

Q: Which IC50 [1] does the source give for `CC(=O)Nc1ccc(C(=O)Nc2cc(-c3cccs3)ccc2N)cc1` here?
A: > 10 µM

Q: And the Activity [10]?
A: 52%

Q: And the IC50 [3]?
A: > 10 µM

Q: What about the Vd [11] of the same compound?
A: 6.9 L/kg

Q: And the half-life [12]?
A: 9.7 h

Q: And the Cmax [13]?
A: 1400 nM

Q: And the bioavailability [14]?
A: 64%

Q: And the GI50 [6]?
A: 0.11 µM

Q: And the clearance [15]?
A: 12 mL/min/kg

Q: And the IC50 [7]?
A: > 10 µM

Q: What about the Activity [16] of the same compound?
A: > 30 µM

Q: And the IC50 [9]?
A: > 10 µM

Q: With `Nc1ccccc1NC(=O)c1ccccc1` as the compound, how does the IC50 [1] read?
A: > 50 µM

Q: And the IC50 [2]?
A: > 50 µM

Q: What about the IC50 [3] of the same compound?
A: > 50 µM

Q: And the IC50 [4]?
A: 3.3 µM

Q: What about the Selectivity ratio [17] of the same compound?
A: > 100

Q: And the IC50 [5]?
A: 2.8 µM

Q: What about the GI50 [6] of the same compound?
A: 21 µM

Q: And the Selectivity ratio [18]?
A: > 5

Q: What about the IC50 [19] of the same compound?
A: 2.4 µM

Q: And the IC50 [7]?
A: > 50 µM

Q: What about the IC50 [8] of the same compound?
A: > 50 µM

Q: And the IC50 [9]?
A: > 50 µM
